Source: US20040152769A1, “Modified carbamate-containing prodrugs and methods of synthesizing same” (priority 2002, published 2004)
In brackets after ≈: the same amount, converted by molar mass. Where two headings read alike, the source gives them in different places. One block for each compound: values may come before it.

How the values were obtained:
[1] = Solubility of Dilantin®-PEG3 conjugate in acetonitrile and deionized water (HPLC); type: physicochemical
Method: 5,5-diphenylhydrantoin and Dilantin®-PEG3 conjugate prodrug solutions were made in acetonitrile with concentrations of 1.12 mg/mL and 0.8 mg/mL, respectively.
Solutions of 5,5-diphenylhydrantoin and Dilantin®-PEG3 conjugate were then made in deionized water at concentrations of 0.99 mg/mL and 0.93 mg/mL, respectively. These solutions were mixed well by vortexing. 1 mL aliquots were taken and spun by centrifuge at 5000 rpm for five minutes. The resultant supemant was taken and analyzed by HPLC for solution concentration. The concentration of 5,5-diphenylhydrantoin was 4 μg/mL. The concentration of Dilantin®-PEG3 conjugate was 160 μg/mL.

[2] = pH 2.0 stability of prodrugs of the native compound (0.06M phosphate buffer, 37° C., 2 hours, RP-HPLC); conditions: for pH 2 Stability: pH 2.0 phosphate buffer, 37° C.; for % Area of Pro-drug / % Area NC: pH 2.0, 37° C., 2 hours, RP-HPLC; for % Area NC: native compound formed
Method: The samples were incubated in a water bath at 37° C. for 2 hours. Each sample was then removed from the water bath and vortexed.

[3] = Oral absorption in rats, parent compound in plasma by LC/MS/MS; conditions: rat, p.o., result in words; for Oral Absorption: first part of Table 2
Method: 100 μL of plasma was extracted with 500 μL of acetonitrile, vortexed and centrifuged. The supernatant was removed, evaporated to dryness, and then reconstituted with 100 μL of 30% methanol. The reconstituted samples were then centrifuged to remove particulates. The supernatant was removed and transferred to HPLC vials for detection and quantitation of the parent compound by LC/MS/MS.

[4] = Rat plasma stability of selected prodrugs (37° C., RP-HPLC); type: in vitro ADME; conditions: for % comp. 0′ / % comp. 60′ / % comp. 120′ / % comp. 240′ / % comp. 360′ / % comp. 480′: 37° C., peak area; for % comp. 0′: 0 minutes; for % comp. 60′: 60 minutes; for % comp. 120′: 120 minutes; for % comp. 240′: 240 minutes; for % comp. 360′: 360 minutes; for % comp. 480′: 480 minutes
Method: Using 1 mg/mL stock solutions of a prodrug described in Example 6.8 above in acetonitrile, 990 μL of rat plasma was spiked with 10 μL of conjugate. The plasma spikes were incubated at 37° C. 100 μL of each sample at each time-point was removed and the reaction was quenched with 500 μL of acetonitrile. Each sample was vortexed and centrifuged immediately and the resultant supernatant was removed, discarding the pellet. The supernatant was concentrated and reconstituted with 100 μL of 30% acetonitrile. Prior to transferring samples to HPLC vials, the samples were centrifuged for 15 minutes at 14000 rpm at 2° C. to remove particulates. 10 μL of 10 μg/mL standard and 75 μL of reconstituted sample were injected for RP-HPLC analysis.
The stability of the prodrugs was measured by analyzing samples at the following time-points: 0, 60, 120, 240, 360, and 480 minutes. Retention time, peak area, and UV spectrum were measured for each sample and standard. […] A Waters 2690 HPLC was used for sample analysis (column: Delta Pak C18 Guard Column, C18, 5 m, 2.1 mm×50 mm; Collected spectrum: 210-380 nm. Extracted chromatogram: 240 nm; Mobile Phase; 0.1% TFA in Water/0.1% TFA in acetonitrile; flow Rate: 0.5 mL/minute).

[5] = Chemical hydrolysis of Dilantin®-conjugate (PEG-3) at a pH of about 2; type: physicochemical; conditions: 0.06M phosphate buffer pH 2.0, 37° C.
Method: Aliquots of a stock solution of Dilantin®-PEG3 conjugate in acetonitrile were spiked into 0.06M phosphate buffer, pH 2.0 (2 μl stock solution in 998 μl buffer). The sample was incubated in a water bath at 37° C. At time points one hour apart, a portion of the sample was removed and submitted for immediate analysis by RP-HPLC.

[6] = Stability of Dilantin®-PEG3 conjugate in rat plasma (spike controls, RP-HPLC); type: in vitro ADME
Method: Also using a stock solution of Dilantin®-PEG3 conjugate in acetonitrile, the following spike controls were prepared in rat plasma: 1 μg/ml, 750 ng/ml, 500 ng/ml and 250 ng/ml. After vortexing, […] of acetonitrile was added. Each sample was centrifuged immediately and the resultant supernatant was removed and the pellet discarded. The supernatant was concentrated and reconstituted with […] of 30% acetonitrile. […] Samples were submitted for RP-HPLC anaylsis. […] Thus, near complete plasma hydrolysis of the conjugate may occur within 1 minute. Studies were repeated a second day to confirm results.

solubility in acetonitrile [1]: 100%
solubility ([1]; water, thermodynamic from solid): 4 µg/mL (≈ 15.9 µM)
SMILES: O=C1NC(=O)C(c2ccccc2)(c2ccccc2)N1 [5,5-diphenylhydrantoin, reference compound]

pH 2 Stability [2]: None
SMILES: CCOC(=O)CCOCCOCCOC [Compound 1]

pH 2 Stability [2]: None
SMILES: CCOCCOCCOCCC(=O)OCC [Compound 2]

pH 2 Stability [2]: None
SMILES: CCOC(=O)CCOCCOCCOCCOCCOCCOCCOCCOCCOC [Compound 3]

pH 2 Stability [2]: None
SMILES: CCOC(=O)COCCOCCOC [Compound 4]

pH 2 Stability [2]: None
SMILES: CCOC(=O)OCCOCCOCCOC [Compound 5]

SMILES: COCCOCCOCCOC(=O)N(C(=O)NCCCN1CCC(c2cccc(OC)c2)CC1)c1cccc(C2C(C(=O)OC)=C(C)NC(C)=C2C(=O)OC)c1 [Compound 6]
Oral Absorption [3]: Not Detected
pH 2 Stability [2]: >2 h

SMILES: COCCOCCOCCOCCOCCOCCOCCOCCOC(=O)N(C(=O)NCCCN1CCC(c2cccc(OC)c2)CC1)c1cccc(C2C(C(=O)OC)=C(C)NC(C)=C2C(=O)OC)c1 [Compound 8]
Oral Absorption [3]: Not Detected
pH 2 Stability [2]: >2 h

SMILES: COC(=O)C1=C(C)NC(C)=C(C(=O)OC)C1c1cccc(N(C(=O)NCCCN2CCC(c3cccc(OC)c3)CC2)C(=O)OC)c1.Cl [Compound 11]
pH 2 Stability [2]: >2 h

SMILES: COCCOCCOCCOC(=O)N(C(=O)NCCCN1CCC(c2cccc(OC)c2)CC1)c1cccc(C2C(C(=O)OC)=C(C)NC(C)=C2C(=O)OC)c1.Cl [Compound 13]
% Area of Pro-drug [2]: 100%
% Area NC [2]: 0%
pH 2 Stability [2]: >2 h
% comp. 0′ ([4]; rat plasma): 99.0%
% comp. 60′ ([4]; rat plasma): 98.0%
% comp. 120′ ([4]; rat plasma): 98.0%
% comp. 240′ ([4]; rat plasma): 97.0%
% comp. 360′ ([4]; rat plasma): 96.0%
% comp. 480′ ([4]; rat plasma): 95.0%

SMILES: CCOC(=O)N(C(=O)NCCCN1CCC(c2cccc(OC)c2)CC1)c1cccc(C2C(C(=O)OC)=C(C)NC(C)=C2C(=O)OC)c1.Cl [Compound 14]
pH 2 Stability [2]: >2 h
% comp. 0′ ([4]; rat plasma): 98.0%
% comp. 60′ ([4]; rat plasma): 98.0%
% comp. 120′ ([4]; rat plasma): 97.5%
% comp. 240′ ([4]; rat plasma): 96.5%
% comp. 360′ ([4]; rat plasma): 96.0%
% comp. 480′ ([4]; rat plasma): 95.0%

SMILES: COC(=O)C1=C(C)NC(C)=C(C(=O)OC)C1c1cccc(N(C(=O)NCCCN2CCC(c3cccc(OC)c3)CC2)C(=O)OC(CO)CO)c1.Cl [Compound 16]
Oral Absorption (Relative AUCs) ([3]; second part of Table 2): Minimal
% comp. 0′ ([4]; rat plasma): 0%
% comp. 60′ ([4]; rat plasma): 0%
% comp. 120′ ([4]; rat plasma): 0%
% comp. 240′ ([4]; rat plasma): 1%
% comp. 360′ ([4]; rat plasma): 1%
% comp. 480′ ([4]; rat plasma): 1%
stability in rat plasma ([4]; rat plasma, result in words): unstable
prodrug converted to the native compound ([4]; within 30 seconds of being introduced to rat plasma): ~100%

SMILES: COCCOCCOCCOCCOC(=O)N(C(=O)NCCCN1CCC(c2cccc(OC)c2)CC1)c1cccc(C2C(C(=O)OC)=C(C)NC(C)=C2C(=O)OC)c1.Cl [Compound 17]
% Area of Pro-drug [2]: 100%
% Area NC [2]: 0%
pH 2 Stability [2]: >2 h
% comp. 0′ ([4]; rat plasma): 99.7%
% comp. 60′ ([4]; rat plasma): 99.0%
% comp. 120′ ([4]; rat plasma): 98.5%
% comp. 240′ ([4]; rat plasma): 98.0%
% comp. 360′ ([4]; rat plasma): 97.0%
% comp. 480′ ([4]; rat plasma): 96.0%

SMILES: COCCOCCOCCOCCOCCOCCOCCOCCOC(=O)N(C(=O)NCCCN1CCC(c2cccc(OC)c2)CC1)c1cccc(C2C(C(=O)OC)=C(C)NC(C)=C2C(=O)OC)c1.Cl [Compound 19]
pH 2 Stability [2]: >2 h
% comp. 0′ ([4]; rat plasma): 97.0%
% comp. 60′ ([4]; rat plasma): 97.0%
% comp. 120′ ([4]; rat plasma): 96.5%
% comp. 240′ ([4]; rat plasma): 96.0%
% comp. 360′ ([4]; rat plasma): 95.3%
% comp. 480′ ([4]; rat plasma): 94.0%

SMILES: COCCOCCOC(=O)N(C(=O)NCCCN1CCC(c2cccc(OC)c2)CC1)c1cccc(C2C(C(=O)OC)=C(C)NC(C)=C2C(=O)OC)c1.Cl [Compound 21]
% Area of Pro-drug [2]: 100%
% Area NC [2]: 0%
pH 2 Stability [2]: >2 h

SMILES: COCCOC(=O)N(C(=O)NCCCN1CCC(c2cccc(OC)c2)CC1)c1cccc(C2C(C(=O)OC)=C(C)NC(C)=C2C(=O)OC)c1.Cl [Compound 22]
% Area of Pro-drug [2]: 100%
% Area NC [2]: 0%
pH 2 Stability [2]: >2 h

Dilantin ® -PEG3 (Remaining), % ([5]; time 0 hours): 100%
Dilantin ® -PEG3 (Remaining), % ([5]; time 2 hours): 96.79%
Dilantin ® -PEG3 (Remaining), % ([5]; time 3 hours): 94.99%
time to near complete plasma hydrolysis of the conjugate ([6]; rat plasma): ≤ 1 min
species found in extracted rat plasma samples ([6]; rat plasma spiked at 1 μg/ml, 750, 500 and 250 ng/ml, RP-HPLC): only the presence of phenyloin
solubility in acetonitrile ([1]; acetonitrile, 1.12 mg/mL (5,5-diphenylhydrantoin) and 0.8 mg/mL (conjugate)): 100%
concentration in supernatant (solubility in water) ([1]; deionized water, made at 0.99 mg/mL and 0.93 mg/mL, centrifuged, HPLC): 160 µg/mL
SMILES: COCCOCCOCCOC(=O)N1C(=O)NC(c2ccccc2)(c2ccccc2)C1=O [Dilantin®-PEG3 conjugate]
solubility in water compared with native drug ([1]; deionized water): more soluble in water than the native drug

pH 2 Stability: >2 h
SMILES: COC(=O)C1=C(C)NC(C)=C(C(=O)OC)C1c1cccc(NC(=O)NCCCN2CCC(c3cccc(OC)c3)CC2)c1 [Native drug, 1,4-Dihydro-[3-[[[[3-[4-(3-methoxyphenyl)-1-piperidinyl]propyl]amino]carbonyl]amino]phenyl]-2,6-dimethyl-3,5-pyridinedicarboxylic acid, dimethyl ester]
